Active and inactive are the calls of the source. No cut-off for these calls is given here. Residues, ends and D or L forms follow the SMILES beside them.
Key:
C8-D1A [1] = assay: Cytotoxicity against mouse C8D1A cells assessed as cell viability at 0.75 to 50 uM after 24 hrs by MTT assay; assay type: toxicity, cell-based; settings: dose 0.75-50 µM
C8-D1A [2] = assay: Inhibition of LPS-induced mouse C8D1A cell viability loss assessed as restoration of cell viability at 0.75 to 6 uM after 24 hrs by MTT assay; assay type: functional, cell-based; settings: dose 0.75-6 µM
C8-D1A [3] = assay: Antiinflammatory activity against mouse C8D1A cells assessed as inhibition of LPS-induced NO production measured after 24 hrs by Griess method; assay type: functional, cell-based; settings: dose 0.75-6 µM, DDE = dose-dependent effect
C8-D1A [4] = assay: Antiinflammatory activity against mouse C8D1A cells assessed as inhibition of LPS-induced iNOS production by Western blotting analysis; assay type: functional, cell-based; settings: dose 0.75-3 µM, DDE = dose-dependent effect
C8-D1A [5] = assay: Antiinflammatory activity against mouse C8D1A cells assessed as inhibition of LPS-induced ROS production measured after 24 hrs by fluorescent CM-H2DCFDA based flow cytometry; assay type: functional, cell-based; settings: dose 0.75-3 µM, DDE = dose-dependent effect
C8-D1A [6] = assay: Antiinflammatory activity against mouse C8D1A cells assessed as inhibition of LPS-induced IL-6 production at 0.75 to 3 uM pretreated for 4 hrs followed by LPS stimulation measured after 24 hrs by ELISA; assay type: functional, cell-based; settings: dose 0.75-3 µM, time 28.0 hrs
C8-D1A [7] = assay: Antiinflammatory activity against mouse C8D1A cells assessed as inhibition of LPS-induced IL-1beta production at 0.75 to 3 uM pretreated for 4 hrs followed by LPS stimulation measured after 24 hrs by ELISA; assay type: functional, cell-based; settings: dose 0.75-3 µM, time 28.0 hrs
C8-D1A [8] = assay: Antiinflammatory activity against mouse C8D1A cells assessed as inhibition of LPS-induced TNFalpha production at 0.75 to 3 uM pretreated for 4 hrs followed by LPS stimulation measured after 24 hrs by ELISA; assay type: functional, cell-based; settings: dose 0.75-3 µM, time 28.0 hrs
C8-D1A [9] = assay: Antiinflammatory activity against mouse C8D1A cells assessed as inhibition of LPS-induced IL-6 mRNA expression at 0.75 to 3 uM pretreated for 4 hrs followed by LPS stimulation measured after 24 hrs by real time PCR analysis; assay type: functional, cell-based; settings: dose 0.75-3 µM, time 28.0 hrs
C8-D1A [10] = assay: Antiinflammatory activity against mouse C8D1A cells assessed as inhibition of LPS-induced IL-1beta mRNA expression at 0.75 to 3 uM pretreated for 4 hrs followed by LPS stimulation measured after 24 hrs by real time PCR analysis; assay type: functional, cell-based; settings: dose 0.75-3 µM, time 28.0 hrs
C8-D1A [11] = assay: Antiinflammatory activity against mouse C8D1A cells assessed as inhibition of LPS-induced TNFalpha mRNA expression at 0.75 to 3 uM pretreated for 4 hrs followed by LPS stimulation measured after 24 hrs by real time PCR analysis; assay type: functional, cell-based; settings: dose 0.75-3 µM, time 28.0 hrs
C8-D1A [12] = assay: Antiinflammatory activity against mouse C8D1A cells assessed as inhibition of LPS-induced GFAP production at 0.75 to 3 uM pretreated for 4 hrs followed by LPS stimulation measured after 24 hrs by DMI-8 microscopy; assay type: functional, cell-based; settings: dose 0.75-3 µM, time 28.0 hrs
[13] = molecular target: Inhibitor of nuclear factor kappa-B kinase subunit alpha/beta (Mus musculus) (UniProt Q60680+O88351); assay: Inhibition of IKKalpha/beta phosphorylation at Ser176/180 in LPS-induced mouse C8D1A cells at 0.75 to 3 uM pretreated for 4 hrs followed by LPS stimulation measured after 24 hrs by Western blotting analysis; assay type: cell-based; settings: dose 0.75-3 µM
[14] = molecular target: T1, Inhibitor of nuclear factor kappa-B kinase subunit beta (Mus musculus) (UniProt O88351); assay: Inhibition of IkappaBalpha phosphorylation at […] in LPS-induced mouse C8D1A cells at 0.75 to 3 uM pretreated for 4 hrs followed by LPS stimulation measured after 24 hrs by Western blotting analysis; assay type: cell-based; settings: dose 0.75-3 µM
T1 sequence (whole entry): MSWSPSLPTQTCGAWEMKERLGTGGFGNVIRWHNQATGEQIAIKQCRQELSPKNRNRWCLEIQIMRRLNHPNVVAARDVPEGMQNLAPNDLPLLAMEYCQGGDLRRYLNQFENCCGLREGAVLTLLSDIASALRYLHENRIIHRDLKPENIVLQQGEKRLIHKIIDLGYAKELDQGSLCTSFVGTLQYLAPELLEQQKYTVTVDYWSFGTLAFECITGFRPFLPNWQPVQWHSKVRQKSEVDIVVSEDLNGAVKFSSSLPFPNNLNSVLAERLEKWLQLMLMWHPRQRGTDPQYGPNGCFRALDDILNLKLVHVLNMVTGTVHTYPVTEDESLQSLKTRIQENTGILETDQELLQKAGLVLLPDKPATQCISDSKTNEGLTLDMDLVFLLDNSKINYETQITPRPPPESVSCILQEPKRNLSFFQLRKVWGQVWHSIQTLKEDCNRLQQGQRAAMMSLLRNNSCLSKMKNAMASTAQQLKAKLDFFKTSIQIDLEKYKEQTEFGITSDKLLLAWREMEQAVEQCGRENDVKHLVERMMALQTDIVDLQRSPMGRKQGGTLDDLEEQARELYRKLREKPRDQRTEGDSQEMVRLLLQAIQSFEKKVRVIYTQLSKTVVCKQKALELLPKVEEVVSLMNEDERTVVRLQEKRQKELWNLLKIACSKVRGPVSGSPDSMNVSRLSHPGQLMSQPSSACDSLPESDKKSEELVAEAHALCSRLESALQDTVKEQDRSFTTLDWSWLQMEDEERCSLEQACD

C8D1A = assay: Inhibition of NFkappaB p65 phosphorylation at […] in LPS-induced mouse C8D1A cells at 0.75 to 3 uM pretreated for 4 hrs followed by LPS stimulation measured after 24 hrs by Western blotting analysis; assay type: cell-based; settings: dose 0.75-3 µM
C8-D1A [15] = assay: Effect on LPS-induced inflammasome activation in mouse C8D1A cells assessed as reduction in NLRP3 protein level at 0.75 to 3 uM by Western blotting analysis; assay type: functional, cell-based; settings: dose 0.75-3 µM
C8-D1A [16] = assay: Effect on LPS-induced inflammasome activation in mouse C8D1A cells assessed as reduction in caspase 1 protein level at 0.75 to 3 uM by Western blotting analysis; assay type: functional, cell-based; settings: dose 0.75-3 µM
C8-D1A [17] = assay: Antiinflammatory activity against mouse C8D1A cells assessed as inhibition of LPS-induced NO production at 3 uM measured after 24 hrs by Griess method; assay type: functional, cell-based
C8-D1A [18] = assay: Antiinflammatory activity against mouse C8D1A cells assessed as inhibition of LPS-induced iNOS expression at 3 uM by Western blotting analysis; assay type: functional, cell-based
C8-D1A [19] = assay: Antiinflammatory activity against mouse C8D1A cells assessed as inhibition of LPS-induced NO production at 3 uM measured after 24 hrs in presence of Y1R antagonist BIIE-0246 by Griess method; assay type: functional, cell-based
C8-D1A [20] = assay: Antiinflammatory activity against mouse C8D1A cells assessed as inhibition of LPS-induced iNOS expression at 3 uM in presence of Y1R antagonist BIIE-0246 by Western blotting analysis; assay type: functional, cell-based

inhibition [13]: Active
inhibition [14]: Active
Structure (SMILES): CC[C@H](C)[C@H](NC(=O)[C@@H](NC(=O)[C@@H](NC(=O)[C@H](Cc1ccc(O)cc1)NC(=O)[C@H](Cc1ccc(O)cc1)NC(=O)CNC(=O)[C@H](C)NC(=O)[C@H](CC(C)C)NC(=O)[C@H](CC(=O)O)NC(=O)[C@H](CO)NC(=O)[C@H](CC(C)C)NC(=O)[C@H](Cc1ccc(O)cc1)NC(=O)[C@H](C)NC(=O)[C@H](CC(N)=O)NC(=O)[C@H](CC(C)C)NC(=O)[C@H](CCC(=O)O)NC(=O)[C@H](C)NC(=O)[C@H](CCSC)NC(=O)[C@H](CO)NC(=O)[C@H](CCCCN)NC(=O)[C@H](Cc1ccccc1)NC(=O)[C@H](CO)NC(=O)[C@H](CCC(=O)O)NC(=O)[C@@H]1CCCN1C(=O)[C@H](CCCNC(=N)N)NC(=O)[C@H](CCCCN)NC(=O)[C@@H]1CCCN1C(=O)[C@@H]1CCCN1C(=O)CNC(=O)CNC(=O)[C@@H](N)C(C)C)[C@@H](C)O)C(C)C)C(=O)NCC(=O)N[C@@H](CCCNC(=N)N)C(=O)N1CCC[C@H]1C(=O)N[C@@H](CCCNC(=N)N)C(=O)N[C@@H](Cc1ccccc1)C(=O)O (H-VGGPPKRPESFKSMAELNAYLSDLAGYYTVIGRPRF-OH)
Activity (C8-D1A [1]): Non-Toxic
Activity (C8-D1A [2]): Active
inhibition (C8-D1A [3]): Dde
inhibition (C8-D1A [4]): Dde
inhibition (C8-D1A [5]): Dde
inhibition (C8-D1A [6]): Active
inhibition (C8-D1A [7]): Active
inhibition (C8-D1A [8]): Active
inhibition (C8-D1A [9]): Active
inhibition (C8-D1A [10]): Active
inhibition (C8-D1A [11]): Active
inhibition (C8-D1A [12]): Active
inhibition (C8D1A): Active
inhibition (C8-D1A [15]): Active
inhibition (C8-D1A [16]): Active
inhibition (C8-D1A [17]): Active
inhibition (C8-D1A [18]): Active
inhibition (C8-D1A [19]): Active
inhibition (C8-D1A [20]): Active

From ChEMBL document CHEMBL5120893, “A Neuropeptide Y/F-like Polypeptide Derived from the Transcriptome of Turbinaria peltata Suppresses LPS-Induced Astrocytic Inflammation” (J Nat Prod, 2022)
